Results taken from publication PMC2196289 (The Journal of Experimental Medicine, 1997).

Molecular target: T1, mouse LXA4R (lipoxin A4 receptor) (Mus musculus, UniProt O08790)
T1 sequence (O08790 1-351): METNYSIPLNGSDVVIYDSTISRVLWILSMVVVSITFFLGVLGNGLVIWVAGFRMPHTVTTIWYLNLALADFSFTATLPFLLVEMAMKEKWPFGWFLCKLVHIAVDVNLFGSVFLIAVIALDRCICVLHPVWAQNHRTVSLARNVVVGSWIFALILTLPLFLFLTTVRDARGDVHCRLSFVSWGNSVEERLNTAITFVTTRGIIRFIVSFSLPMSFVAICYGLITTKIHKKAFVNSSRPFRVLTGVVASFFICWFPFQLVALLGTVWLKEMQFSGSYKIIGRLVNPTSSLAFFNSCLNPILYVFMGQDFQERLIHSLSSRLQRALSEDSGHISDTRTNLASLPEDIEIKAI
Assay: [3H]LXA4 radioligand binding
Format: cell-based

CCCCC[C@H](O)/C=C/C=C\C=C\C=C\[C@@H](O)[C@@H](O)CCCC(=O)O [LXA4, 5(S),6(R),15(S)-trihydroxy7,9,13-trans-11-cis-eicosatetraenoic acid]
Kd: 1.5 ± 0.6 nM
